Type in all cases: cell-based
For one assay, the system named is ERK. The assay can be described thus: Western blot with antibody against phosphorylated (active) ERK. The conditions noted are these: capacitated human spermatozoa, 0.2 M vanadate, 60 min, FIG. 4a. The method, then: (§1) FIGS. 4a-f are autoradiograms depicting expression and activity of MAPK proteins in human spermatozoa. LβT2 cells were treated for 60 min with 50 ng/ml 12-O-Tetradecanoylphorbol-13-acetate (TPA, FIGS. 4a-f, lane 1) and capacitated human spermatozoa were treated for 60 min with 0.2 M vanadate (FIGS. 4a-f, lane 3) or were remained untreated (FIGS. 4a-f, lane 2). Cell lysates were subsequently prepared and subjected to Western blot analysis with antibodies directed at the active, phosphorylated form of ERK, p38 and JNK (FIGS. 4a, 4c and 4e, respectively), or with antibodies directed at the unphosphorylated form of ERK, p38 and JNK (FIGS. 4b, 4d and 4f, respectively).
(§2) Western blot analysis—Western blot analysis was effected with antibodies directed at ERK, JNK and p38 proteins as well as with antibodies directed at the phosphorylated forms of these MAPK proteins (Sigma Rehovot, Israel). The assay was performed as previously described (Yung et al., 1997).
(§3) Molecular identification of MAPK cascade proteins in human spermatozoa—Capacitated human spermatozoa cell lysate were generated as described and subjected to Western blot analysis using MAPK antibodies specific to either the phosphorylated or the general forms of ERK, p38 and INK proteins. […]
In general terms: A western blot detects proteins with antibodies after separation by electrophoresis.

In the next assay the test system is p38. Description: Western blot with antibody against phosphorylated (active) p38. The note with it: capacitated human spermatozoa, 0.2 M vanadate, 60 min, FIG. 4c. The method, then:
as §1, §2, §3

Assay [1] relates to capacitated human spermatozoa. The assay can be described thus: Drug effect on acrosome reaction. Details: Acrosome reaction: unit not given here. The note with it: for Acrosome reaction (AR) stimulated by inducer: inducer alone, stimulation over control; for AR stimulated by A23187 in the presence of inhibitor / stimulated AR observed in the presence of progesterone and hZP-3, effect of inhibitor: Table 1; for stimulated AR observed in the presence of progesterone and hZP-3, effect of inhibitor: progesterone- and hZP-3-stimulated AR. As to the method:
(§4) Sperm capacitation—Isolated sperm samples were incubated for 3 hours at 36° C. in HAM's F-10 medium supplemented with 0.3% BSA as in Rotem et al., 1990a, b
Drug effect on acrosome reaction—To test the involvement of MAPK cascade proteins on acrosome reaction the following drugs were added to the incubation medium: Progesterone (Sigma-Aldrich Corp., St Louis, Mo., USA), hZP-3 (human zona pellucida protein 3, obtained from P. Salling, N.C., USA) diluted in MOCK (F-10 medium containing 0.1% DMSO, Biological Industries, Beth Ha'Emek, Israel), A23187 (calcium ionophore, Calbiochem, La Jolla, Calif., USA), PD98059 (Biomol, Plymouth Meeting, Pa., USA), SB203580 (Biomol, Plymouth Meeting, Pa., USA) and GF109203X (PKC inhibitor, Calbiochem, La Jolla, Calif., USA). Acrosome reaction was determined as described elsewhere (Rotem et al., 1992).

In another assay the test system is human spermatozoa. The assay can be described thus: Drug effect on sperm motility (progressive flagellar motility). As to the method:
FIG. 8 is a graphic representation of the effect of progesterone and MAPK inhibitors on human spermatozoa motility. Human spermatozoa (5×10^7/ml) were incubated with PD98059 (ERK inhibitor, at 50 μM, FIG. 8, marked with “PD”) and SB203580 (p38 inhibitor, at 50 μM, FIG. 8, marked with “SB”), in the presence or absence of progesterone (at 5 μg/ml, FIG. 8, marked with “P”) for the indicated time. Percent motile spermatozoa was determined in aliquots of 10 μl. Results are expressed as mean ±SEM of three experiments.
Isolation of human sperm samples—Human semen were obtained upon informed consent from healthy donors having normal sperm density, motility and morphology (according to the World Health Organization (WHO) guidelines of 1992) following 3 days of sexual abstinence. Sperm samples were collected into sterile 50 ml tubes and semen was liquefied for 1 hour at 36° C., washed twice with HAM's F-10 medium (Biological Industries, Beth Ha'Emek, Israel) supplemented with 0.3% bovine serum albumin (BSA) and separated from non-sperm cells by a Percoll gradient centrifugation (Sigma-Aldrich Corp., St Louis, Mo., USA) essentially as described elsewhere (Rotem et al., 1990a, b). The resultant sperm sample contained approx. 50×10^6 sperm/ml.
as §4
Drug effect on sperm motility—To test the effect of MAPK inhibitors and progesterone on sperm motility the following drugs were added to the incubation medium: PD98059 (ERK inhibitor, Biomol, Plymouth Meeting, Pa., USA), SB203580 (p38 inhibitor, Biomol, Plymouth Meeting, Pa., USA) and progesterone (Sigma-Aldrich Corp., St Louis, Mo., USA). Progressive flagellar motility was determined as described elsewhere (Rotem et al., 1990a, b).

In another assay the test system is ERK 1 and ERK 2. The assay can be described thus: Determination of phosphorylated ERK by in-gel kinase assay. The conditions noted are these: human spermatozoa stimulated by progesterone 5 μg/ml, bands of 44 and 42 kDa, data not shown. As to the method:
Determination of phosphorylated ERK by in-gel kinase assay—To further substantiate its role in spermatozoa maturation the phosphorylation state of ERK was determined by in-gel kinase assay as described elsewhere (Naor et al., 1999). […] Mitogen-activated protein (MAP) kinase pathways: regulation and physiological functions. Endocr. Rev. 22: 153-183] are active in human spermatozoa.

Each structure is given as a SMILES string. Entries after “also recorded” stand apart in the source; their conditions may differ.

In the case of `[O]=[V]([O-])([O-])[O-]` [vanadate], in the assay on ERK, the “phosphorylated ERK (Western blot signal)” value was “could be detected only following treatment; also recorded: increased band intensity”. In addition, the “phosphorylated form of p38 (Western blot signal)” value with p38 is “regardless of vanadate treatment”.
Compound `CNc1ccc2oc(C[C@H]3O[C@@]4(CC[C@H]3C)O[C@H]([C@H](C)C(=O)c3ccc[nH]3)[C@H](C)C[C@H]4C)nc2c1C(=O)O` [A23187] gave an Acrosome reaction in assay [1] (A23187 10 μM, no inhibitor (Control)) of 51. The “Acrosome reaction (AR) stimulated by inducer” value in assay [1] was found to be 140%.
Turning to `C[S+]([O-])c1ccc(-c2nc(-c3ccncc3)c(-c3ccc(F)cc3)[nH]2)cc1` (centres unmarked) [SB203580], the “SB203580-induced increase in progressive flagellar motility” value with human spermatozoa (50 μM SB203580 co-introduced with 5 μg/ml progesterone, FIG. 8 SB+P) is on record as “completely abolished”. Besides, the “sperm motility (percent motile spermatozoa), FIG. 8 legend” value with human spermatozoa (SB203580 50 μM in the presence of progesterone 5 μg/ml) is “normal motility”; in the assay on human spermatozoa (human spermatozoa 5×10^7/ml, SB203580 50 μM), “significant increase”. In addition, the “increase in progressive flagellar motility” value in the assay with human spermatozoa (human spermatozoa, 50 μM SB203580, FIG. 8) is “over 120%”. Moreover, the “AR stimulated by A23187 in the presence of inhibitor” value in assay [1] was “persisted”. In addition, the “non-specific increase in AR stimulated by MOCK, effect of inhibitor” value in assay [1] (MOCK-stimulated AR) is “inhibited”. Moreover, the Acrosome reaction in assay [1] (SB203580 20 μM, no inducer (Control)) worked out at 17; in assay [1] (SB203580 20 μM, with A23187 10 μM), 49; in assay [1] (SB203580 20 μM, with MOCK) it was 15; in assay [1] (SB203580 20 μM, with hZP3 50 ng/ml), 28; in assay [1] (SB203580 20 μM, with progesterone 5 μg/ml) it was 11. Moreover, the “stimulated AR observed in the presence of progesterone and hZP-3, effect of inhibitor” value (“stimulated AR observed … of inhibitor” below) in assay [1] was “markedly inhibited”.
`COc1cccc(-c2cc(=O)c3ccccc3o2)c1N` [PD98059]: the “progressive flagellar motility decreased to” value in the assay with human spermatozoa (human spermatozoa, 50 μM PD98059, transient, FIG. 8) is 50%. Also, in assay [1], the “AR stimulated by A23187 in the presence of inhibitor” value is listed as “persisted”. The Acrosome reaction stood at 17 in assay [1] (PD98059 5 μM, no inducer (Control)); 50 in assay [1] (PD98059 5 μM, with A23187 10 μM); 25 in assay [1] (PD98059 5 μM, with MOCK); 29 in assay [1] (PD98059 5 μM, with hZP3 50 ng/ml); 18 in assay [1] (PD98059 5 μM, with progesterone 5 μg/ml). Moreover, in assay [1], the “stimulated AR observed … of inhibitor” value is given as “markedly inhibited”.
`CN(C)CCCn1cc(C2=C(c3c[nH]c4ccccc34)C(=O)NC2=O)c2ccccc21` [GF109203X]: the “AR stimulated by A23187 in the presence of inhibitor” value in assay [1] was “persisted”. Also, the Acrosome reaction in assay [1] (GF109203X 100 nM, no inducer (Control)) stood at 19; in assay [1] (GF109203X 100 nM, with A23187 10 μM) it was 48; in assay [1] (GF109203X 100 nM, with MOCK), 28; in assay [1] (GF109203X 100 nM, with hZP3 50 ng/ml) it was 18; in assay [1] (GF109203X 100 nM, with progesterone 5 μg/ml) it was 15. In addition, the “stimulated AR observed … of inhibitor” value in assay [1] is “markedly inhibited”.
For the compound `CC(=O)[C@H]1CC[C@H]2[C@@H]3CCC4=CC(=O)CC[C@]4(C)[C@H]3CC[C@]12C` [Progesterone, progesterone], the “effect on progressive flagellar motility” value in the assay with human spermatozoa (human spermatozoa, 5 μg/ml progesterone, FIG. 8) is reported as “no effect”. The “phosphorylation state of ERK (in-gel kinase assay)” value with ERK 1 and ERK 2 was “exhibited two phosphorylated bands”. In assay [1], the “Acrosome reaction (AR) stimulated by inducer” value is reported as 50%. The Acrosome reaction in assay [1] (progesterone 5 μg/ml, no inhibitor (Control)) came to 31.
